Test results taken from US3984547A, “Veterinary feedstuffs” (Bayer Aktiengesellschaft, priority 1971, dated 1976).
Converted amounts (≈) assume the structure as drawn. Where two headings read alike, the source gives them in different places.

How the values were obtained:
Mycoplasma granularum = assay: MIC, series dilution test (PPLO medium); assay type: cell-based; settings: Acholeplasma granularum, 37° C, 18, 24 and 48 h, read-out: minimal inhibitory concentrations (MIC)
Experimental: (§1) For the compound of Example 3, the following minimal inhibitory concentrations (MIC) (γ/ml of nutrient medium) were measured by the series dilution test (PPLO medium), incubation temperature 37° C, determination after 18, 24 and 48 hours.

Mycoplasma gallisepticum = assay: MIC, series dilution test (PPLO medium); assay type: cell-based; settings: Mycoplasmoides gallisepticum, 37° C, 18, 24 and 48 h, read-out: minimal inhibitory concentrations (MIC)
Experimental: as §1

Mycoplasma bovirhinis = assay: MIC, series dilution test (PPLO medium); assay type: cell-based; settings: 37° C, 18, 24 and 48 h, read-out: minimal inhibitory concentrations (MIC)
Experimental: as §1

Escherichia coli C 165 = assay: ED100 in mice after intraperitoneal infection, Table 3; assay type: in vivo; settings: read-out: effective 100% dose (ED100)
Experimental: In animal experiments on mice, the effective 100% dose (ED100) in mg/Kg was determined for certain compounds of the invention after intraperitoneal infection and subcutaneous (s.c.) or oral (p.o.) administration of the preparation.

CN=Cc1c(C(=O)O)[n+]([O-])c2ccccc2[n+]1[O-] [Example 3]
MIC (Mycoplasma granularum): 25 µg/mL (≈ 101 µM) | MIC (Mycoplasma gallisepticum): 100 µg/mL (≈ 405 µM) | MIC (Mycoplasma bovirhinis): 200 µg/mL (≈ 809 µM) | ED100 (Escherichia coli C 165; C165, oral (p.c. [sic])): 100 mg/kg | ED100 (Escherichia coli C 165; C165, sc, s.c.): 50 mg/kg
